We go through 2 compounds from US20160106789A1, “Inhibition of Neurodegenerative Disease by Grape Seed Extract, Green Tea Extract and Probiotic Bacteria” (priority 2013, published 2016).

Counter-ions that a name gives are not always drawn.

In one assay the test system is Alzheimer patients. Kind of assay: Effect on an Alzheimer patient: cognitive state and mini-mental state examination (MMSE). The class given is in vivo, human. As to conditions: daily, discontinued after two weeks; person, MMSE 13. The protocol: Six weeks after the diagnosis, the patient's condition continued to deteriorate. The patient was administered memantine hydrochloride (Ebixa® tablet), an antidementia medicine, on a daily basis. Blood-pressure reducing medication was concomitantly administered and the blood pressure was measured to be on the average of 130/70 systolic/diastolic. However, the patient's deterioration appeared to be unaffected by the drug and administration of Ebixa was consequently discontinued after two weeks.
The following four months were characterized by sporadic memory lapses typical of a moderately severe affliction as well as behavioral deteriorations that occurred from time to time
Consequently, the blood-pressure reducing medication was discontinued and the administration of GSE was reduced to one capsule per day (300 mg) as GSE is known to reduce blood pressure.

A short description of assay [1]: General effect on mental faculties (memory) of a first subject. In kind it is in vivo, human. The note with it: 100 mg once daily over 40 days, after nocturnal sleep, same subject after ceasing GSE. On the procedure:
A first subject consumed a capsule containing 300 mg of Meganatural-BP® over a period of 18 months, once daily, immediately after nocturnal sleep. […] The same subject ceased to consume GSE and immediately subsequent consumed capsules of 100 mg EGCG (Lyan) over a period of 40 days, once daily, immediately after nocturnal sleep. 300 mg of Meganatural-BP® and 60 mg of EGCG capsules were concomitantly administered to the same subject, immediately after nocturnal sleep, following the EGCG regime.

In the next assay the test system is amyloid fibrils. As to conditions: in-vitro; cited from earlier work.
The next assay concerns β-amyloid peptides. As to conditions: cited from earlier work.

In the case of `CC12CC3CC(C)(C1)CC(N)(C3)C2` [memantine hydrochloride], in the assay on Alzheimer patients, the “patient's deterioration” value was “unaffected”.
Consider Epigallocatechin-3-gallate [EGCG], for which the improvement of memory entry in assay [1] is listed as “No improvement of memory”. Moreover, the “formation of β-sheet rich aggregation products such as amyloid fibrils” value with amyloid fibrils is recorded as “prevented”. In addition, the “generation of β-amyloid peptides” value in the assay on β-amyloid peptides was “reduces”.
